Test results: article PMC6273037, “Synthesis, Structure and Cytotoxic Activity of Mono- and Dialkoxy Derivatives of 5,8-Quinolinedione” (Molecules, 2016)
Read-outs that look alike come from different tables or passages of the source.

Tests used:
[1] = test system: C-32 (human melanoma); experiment: WST-1 antiproliferative assay, melanoma C-32; format: cell-based; details: WST-1 test, incubation time 72 h, read-out: Human Cell Line/IC50 ± SD C-32
Description: (§1) As a reference, the cytotoxic agent cisplatin was applied.
(§2) The synthesized compounds were tested against tumor cells SNB-19 (human glioblastoma, DSMZ-German Collection of Microorganisms and Cell Cultures, Braunschweig, Germany), MDA-MB-231 (human adenocarcinoma, breast cancer; ATCC), C-32 (human melanoma; ATCC) and nontumor cells HFF-1 (normal human fibroblasts derived from foreskin, ATCC). The cultured cells were kept at 37 °C and in 5% CO2. The cells were seeded (10^3 cells/well/[…] DMEM supplemented with FBS (Fetal Bovine Serum, Lonza) to a final concentration of 10% and streptomycin 10 mg/mL and penicillin 1000 IU/mL (Sigma), using 96-well plates (Corning).
(§3) The antiproliferative effect of the synthesized compounds was determined using the Cell Proliferation Reagent WST-1 assay (Roche Diagnostics, Mannheim, Germany). […] After an exposure to the tested compounds at concentration varying in the range 0.4–400 nM/mL, the cell viability was quantified by a cell proliferation assay. […] The cytotoxic activity of the tested compound was compared to the cisplatin (positive control). The experiments were repeated in triplicate for each concentration of the tested compound. The initial concentration of the tested compounds was 1 mg/mL DMSO. […] Calculations of the IC50 values were performed using the GraphPad Prism 6 (GraphPad Software, San Diego, CA, USA).

[2] = test system: MDA-MB-231 (human adenocarcinoma, breast cancer); experiment: WST-1 antiproliferative assay, breast cancer MDA-MB-231; format: cell-based; details: for IC50: WST-1 test, incubation time 72 h, read-out: Human Cell Line/IC50 ± SD MDA-MB-231; for selectivity index (SI): breast cancer (MDA-MB-231) cell line
Description: as §1, §2, §3

[3] = test system: SNB-19 (human glioblastoma); experiment: WST-1 antiproliferative assay, glioblastoma SNB-19; format: cell-based; details: WST-1 test, incubation time 72 h, read-out: Human Cell Line/IC50 ± SD SNB-19
Description: as §1, §2, §3

[4] = test system: HFF-1 (normal human fibroblasts); experiment: WST-1 antiproliferative assay, normal fibroblasts HFF-1; format: cell-based; details: WST-1 test, incubation time 72 h, Neg = Negative in the concentration used; for IC50: read-out: Human Cell Line/IC50 ± SD HFF-1
Description: as §1, §2, §3

Row | Compound | melting point | IC50 ([1]; Homo sapiens) | IC50 ([2]; Homo sapiens, MDA-MB-231) | IC50 ([3]; Homo sapiens, SNB-19) | IC50 ([4]; Homo sapiens, HFF-1) | Human Cell Line/IC50 ± SD HFF-1 [4] | selectivity index (SI) [2] | IC50 [1] | IC50 [2] | IC50 [3] | IC50 [4]
1 | N#CCCOC1=C(Cl)C(=O)c2cccnc2C1=O [Compound 7, 6-Chloro-7-(2-cyanoethoxy)-5,8-quinolinedione] | 177 to 179 °C | 119 ± 4.3 µM | 164 ± 3.9 µM | 58.3 ± 2.8 µM | 2.5 ± 0.4 µM | – | – | – | – | – | –
2 | CCOC1=C(Cl)C(=O)c2cccnc2C1=O [Compound 3, 6-Chloro-7-ethoxy-5,8-quinolinedione] | 112 to 114 °C | 30.7 ± 1.1 µM | 24 ± 2.8 µM | 10.3 ± 2.4 µM | 1.3 ± 0.5 µM | – | – | – | – | – | –
3 | O=C1C(Cl)=C(OCCCl)C(=O)c2ncccc21 [Compound 6, 6-Chloro-7-(2-chloroethoxy)-5,8-quinolinedione] | 114 to 116 °C | 22.8 ± 2.5 µM | 17 ± 3 µM | 18.3 ± 1.4 µM | 15.8 ± 1.2 µM | – | – | – | – | – | –
4 | 6-Chloro-7-(1-methylbenzyloxy)-5,8-quinolinedione [Compound 9] | – | – | – | – | – | – | – | 0.81 ± 0.01 µM | 271 ± 9.8 µM | 2.3 ± 0.5 µM | 2 ± 0.3 µM
5 | N#CCCOC1=C(OCCC#N)C(=O)c2ncccc2C1=O [Compound 16, 6,7-di(2-Cyanoethoxy)-5,8-quinolinedione] | 45 to 47 °C | 134 ± 10.7 µM | 111 ± 3.7 µM | 204 ± 14.3 µM | 18.2 ± 2.6 µM | – | – | – | – | – | –
6 | N.N.[Cl][Pt][Cl] [cisplatin, reference compound] | – | – | – | – | – | – | – | 16.4 ± 1.2 µM | 25.5 ± 0.2 µM | 18.9 ± 0.4 µM | 9.1 ± 1.8 µM
7 | CCOC1=C(OCC)C(=O)c2ncccc2C1=O [Compound 11, 6,7-Diethoxy-5,8-quinolinedione] | 69 to 70 °C | 17.6 ± 1.6 µM | 18.6 ± 2 µM | 2.1 ± 0.1 µM | – | Neg | – | – | – | – | –
8 | COC1=C(Cl)C(=O)c2cccnc2C1=O [Compound 2, 6-Chloro-7-methoxy-5,8-quinolinedione] | 161 to 163 °C | 19.2 ± 2.1 µM | 1.5 ± 0.2 µM | 42.2 ± 0.1 µM | 27.6 ± 2.1 µM | – | 18.4 | – | – | – | –
9 | COC1=C(OC)C(=O)c2ncccc2C1=O [Compound 10, 6,7-Dimethoxy-5,8-quinolinedione] | 132 to 133 °C | – | – | – | – | – | – | – | – | – | –

Continued by falling IC50 ([1]; Homo sapiens), values first:

Row | melting point | IC50 ([1]; Homo sapiens) | IC50 ([2]; Homo sapiens, MDA-MB-231) | IC50 ([3]; Homo sapiens, SNB-19) | Compound | IC50 ([4]; Homo sapiens, HFF-1) | Human Cell Line/IC50 ± SD HFF-1 [4] | selectivity index (SI) [2] | IC50 [1] | IC50 [2] | IC50 [3] | IC50 [4]
10 | 189 to 191 °C | 12.1 ± 0.2 µM | 10.9 ± 1.4 µM | 3.5 ± 0.3 µM | O=C1C(OCCCl)=C(OCCCl)C(=O)c2ncccc21 [Compound 14, 6,7-di(2-Chloroethoxy)-5,8-quinolinedione] | 1.9 ± 0.2 µM | – | – | – | – | – | –
11 | 110 to 111 °C | 10.9 ± 1.3 µM | 2.7 ± 0.1 µM | 14.9 ± 0.7 µM | O=C1C(OCC(F)(F)F)=C(OCC(F)(F)F)C(=O)c2ncccc21 [Compound 15, 6,7-di(2,2,2-Trifluoroethoxy)-5,8-quinolinedione] | 12.4 ± 1.2 µM | – | 4.6 | – | – | – | –
12 | 135 to 136 °C | 1.5 ± 0.01 µM | 12.6 ± 2.7 µM | 0.2 ± 0.01 µM | C=CCOC1=C(OCC=C)C(=O)c2ncccc2C1=O [Compound 13, 6,7-di(2-Propenyloxy)-5,8-quinolinedione] | – | Neg | – | – | – | – | –
13 | 123 to 124 °C | 1.4 ± 0.1 µM | 3.5 ± 0.3 µM | 1.8 ± 0.1 µM | O=C1C(Cl)=C(OC2CCCCC2)C(=O)c2ncccc21 [Compound 8, 6-Chloro-7-cyclohexyloxy-5,8-quinolinedione] | 13.9 ± 3 µM | – | – | – | – | – | –
14 | – | 1.4 ± 0.1 µM | 13.8 ± 0.1 µM | 1.7 ± 0.3 µM | O=C1C(OC2CCCCC2)=C(OC2CCCCC2)C(=O)c2ncccc21 [Compound 17, 6,7-Dicyclohexloxy-5,8-quinolinedione] | – | Neg | – | – | – | – | –
15 | 133 to 135 °C | 1.1 ± 0.1 µM | 3 ± 0.3 µM | 0.7 ± 0.02 µM | CCCOC1=C(OCCC)C(=O)c2ncccc2C1=O [Compound 12, 6,7-Dipropoxy-5,8-quinolinedione] | – | Neg | – | – | – | – | –
16 | 89 to 90 °C | 0.28 ± 0.09 µM | 17.2 ± 2.8 µM | 0.3 ± 0.01 µM | C=CCOC1=C(Cl)C(=O)c2cccnc2C1=O [Compound 5, 6-Chloro-7-(2-propenoxy)-5,8-quinolinedione] | – | Neg | – | – | – | – | –
17 | 121 to 122 °C | 0.2 ± 0.01 µM | 22.4 ± 2.7 µM | 0.36 ± 0.03 µM | CCCOC1=C(Cl)C(=O)c2cccnc2C1=O [Compound 4, 6-Chloro-7-propoxy-5,8-quinolinedione] | – | Neg | – | – | – | – | –
